Where a name gives a salt, the structure may show the parent alone. Read-outs that look alike come from different tables or passages of the source.
Assays:
[1] = system: 3T3-L1 adipocytes; test: Screening assay: insulin-stimulated 14C-glucose uptake by adipocytes (Example 3; F, sF, S/N); assay type: cell-based, mouse
Protocol: These assays were conducted as follows.
(§1) Complete media, also referred to as “Prees” media, was prepared as follows. Dulbecco's Modified Eagle's Medium (DMEM) was supplemented with L-glutamine, penicillin-G and streptomycin (pen/strep), and heat-inactivated fetal bovine serum (FBS) (heat inactivated at […] for 30 minutes). Because serum can affect the growth, adherence, and differentiation of cells, any new lot of serum was first tested prior to use. Media was equilibrated in the incubator (5% CO2) until the pH was within the proper range (˜7), as indicated by the red/orange color of the indicator dye. If the media became pink (indicating a high pH), we discarded the media as basic conditions can affect cells and denature the insulin used in the differentiation medium-1 (DM1) and the differentiation medium-2 (DM2).
Differentiation media-2 (DM2) was prepared by supplementing DMEM with 10% FBS, L-glutamine, pen/strep, and insulin (120 nM).
(§2) Cell culture plates were gelatinized as follows. Gelatin (1% w/v in distilled water) was autoclaved and stored at room temperature. The bottom of each cell culture well was covered uniformly in the gelatin solution, ensuring that no bubbles were formed. This solution was removed leaving behind a thin film of gelatin. These plates were left to dry under the tissue culture hood. Plates were next washed with PBS, after which a 0.5% glutaric dialdehyde solution (glutaraldehyde in distilled water) was added to the cell culture wells. After ten minutes, wells were washed twice with DMEM containing pen-strep. Each washing step should last for approximately five minutes.
(§3) 3T3-L1 pre-adipocyte cells were split approximately every 2-3 days or upon reaching a confluence of approximately 60%. Overconfluency may affect the ability of these cells to differentiate into adipocytes.
(§4) D-(+)-glucose (“cold” glucose, not radiolabeled) was added to DPBS mix to a final concentration of 10 mM.
(§5) Lysis buffer, a mixture of a base (e.g., sodium hydroxide at a final concentration of 0.5N) and a detergent (e.g., sodium dodecyl sulphate (SDS) diluted to a final concentration of 0.1% w/v) was freshly prepared each time (within one to two hours of use). Prior to use, lysis buffer was warmed up to a temperature exceeding that of room temperature for a period of approximately 30 minutes to avoid precipitation of the buffer.
(§6) Pre-adipocyte 3T3-L1 cells were plated at a density of approximately 5000 cells/well (in black NUNC 96 well plate). These cells were differentiated into adipocytes in two separate steps. Initially, cells were cultured in differentiation medium-1 (DM1) (day 1 of adipocyte differentation) for a period of two to three days. DM1 prevents proliferation and induces the expression of adipocyte-specific genes. Cells were next cultured in differentiation medium-2 (DM2) for 3 to 4 days, after which the culture media was replaced by fresh DM2. The glucose uptake assay was performed at day 9-15 of differentiation.
Two days prior to the experiment (at day 7-13 of differentiation), DM2 was removed and replaced with fresh Prees media. Candidate compounds were added at this time, allowing an incubation period of approximately 48 hours. On the day of the experiment, cells (now at day 9 to 15 of differentiation) were serum starved for three hours in DPBS, magnesium sulfate (0.8 mM), and Hepes (10 mM) at pH ˜7. After this incubation period, fresh DPBS containing insulin (10 nM) was added to the adipocytes. Fresh DPBS without any insulin were placed on cells that served as a negative control. Following an incubation period of 25 minutes at 37° C., radioactive glucose (labeled with ^14C, at a final concentration of 0.04 mM, ˜0.26 μCi ^14C-glucose in each well) was added to the media for a period of 15 minutes at room temperature. Media was next removed and cells were washed thoroughly and lysed. Upon lysis, cells form a small, cloudy mass, detached from the well bottom.

[2] = system: human skeletal myoblasts; test: Glycogen synthesis from radiolabeled glucose in skeletal myoblasts (Example 3; Xlsyz); assay type: cell-based
Protocol: In another set of experiments, human skeletal myoblasts obtained by the conditional immortalization of cells derived from a non-diabetic subject, were used to screen the effect of a multitude of compounds on glycogen synthesis. For each compound, two doses were tested in triplicate. The vehicle was used as a negative control and insulin was used as a positive control. Prior to treatment, cells were serum-starved for 12 to 18 hours in Ham's F10 medium. Cells were next incubated either with the test compounds or control for a period of two hours in serum-free media containing radiolabeled glucose, after which, glycogen synthesis was measured.

[3] = system: 3T3-L1 adipocytes; test: Insulin-stimulated 14C-glucose uptake in differentiated adipocytes (Example 1); assay type: cell-based, mouse
Protocol: Differentiated mouse adipocytes were employed to identify combinations of agents that have the ability to increase glucose uptake upon insulin stimulation, as detected by scintillation counting of radiolabelled glucose (using, for example, the Perkin Elmer 1450 Microbeta JET reader). These assays were conducted as follows.
as §1
Differentiation media-1 (DM1) was prepared by supplementing DMEM with 10% FBS, L-glutamine, pen/strep, IBMX (375 μM), insulin (120 nM), and dexamethasone (188 nM). Differentiation media-2 (DM2) was prepared by supplementing DMEM with 10% FBS, L-glutamine, pen/strep, and insulin (120 nM).
as §2, §3, §4, §5, §6
Two days prior to the experiment (at day 7-13 of differentiation), DM2 was removed and replaced with fresh Prees media. Candidate compounds were added at this time, allowing an incubation period of approximately 48 hours. On the day of the experiment, cells (now at day 9 to 15 of differentiation) were serum starved for three hours in DPBS, magnesium sulfate (0.8 mM), and Hepes (10 mM) at pH ˜7. After this incubation period, fresh DPBS containing insulin (10 nM) was added to the adipocytes. Fresh DPBS without any insulin were placed on cells that served as a negative control. […]

[4] = insulin-stimulated 14C-glucose uptake, 3T3-L1 adipocytes, about 48 h with compound, 10 nM insulin, test concentration per compound in column CRx uM
[5] = glycogen synthesis, human skeletal myoblasts, 2 h, dose (H)
[6] = glycogen synthesis, human skeletal myoblasts, 2 h, dose (L), concentration per compound uM(L)

Row | Molecule | CRx F [1, 4] | Xlsyz F(H) [2, 5] | Xlsyz F(L) [2, 6] | further results
1 | CC(=O)Nc1ccc(O)cc1 [Acetaminophen] | 1.021 | – | – | –
2 | CC(=O)Nc1nnc(S(N)(=O)=O)s1 [Acetazolamide] | 0.8994 | – | – | –
3 | CC(=O)O[C@H]1C[C@H](O[C@H]2[C@@H](O)C[C@H](O[C@H]3[C@@H](O)C[C@H](O[C@H]4CC[C@@]5(C)[C@H](CC[C@@H]6[C@@H]5CC[C@]5(C)[C@@H](C7=CC(=O)OC7)CC[C@]65O)C4)O[C@@H]3C)O[C@@H]2C)O[C@H](C)[C@H]1O [Acetyldigitoxin] | 0.8077 | 1.2593 | 1.3016 | –
4 | Cl.N [Ammonium Chloride] | – | 1.2105 | 0.8482 | CRx F [1]: 0.8881
5 | CCCCNCC(O)c1ccc(O)cc1 (stereo not drawn) [Bamethan] | 1.1895 | 1.3846 | 0.9106 | –
6 | CC(C)(Oc1ccc(CCNC(=O)c2ccc(Cl)cc2)cc1)C(=O)O [Bezafibrate] | – | – | – | average fold increase in insulin-stimulated glucose uptake compared to vehicle treated control ([3]; Bezafibrate 9 μM, Cinnamic acid 0 μM, average of three biological replicates): 0.94 fold; average fold increase in insulin-stimulated glucose uptake compared to vehicle treated control ([3]; Bezafibrate 9 μM, Diflunisal 0 μM, average of four biological replicates): 1.16 fold; average fold increase in insulin-stimulated glucose uptake compared to vehicle treated control ([3]; Bezafibrate 18 μM, Cinnamic acid 0 μM, average of three biological replicates): 1.21 fold; average fold increase in insulin-stimulated glucose uptake compared to vehicle treated control ([3]; Bezafibrate 18 μM, Diflunisal 0 μM, average of four biological replicates): 1.37 fold; average fold increase in insulin-stimulated glucose uptake compared to vehicle treated control ([3]; Bezafibrate 36 μM, Cinnamic acid 0 μM, average of three biological replicates): 1.15 fold; average fold increase in insulin-stimulated glucose uptake compared to vehicle treated control ([3]; Bezafibrate 36 μM, Diflunisal 0 μM, average of four biological replicates): 1.57 fold
7 | [Ca+2].[Cl-].[Cl-] [Calcium Chloride] | – | – | – | CRx F [1]: 0.7358; Xlsyz F(H) [2]: 1.2121; Xlsyz F(L) [2]: 1.0714
8 | C[C@H](CS)C(=O)N1CCC[C@H]1C(=O)O [Captopril] | 0.662 | – | – | –
9 | NC(=O)N1c2ccccc2C=Cc2ccccc21 [Carbamazepine] | 0.7464 | – | – | –
10 | O=C(O)C=Cc1ccccc1 [Cinnamic acid, 3-phenyl-2-propenoic acid] | – | – | – | average fold increase in insulin-stimulated glucose uptake compared to vehicle treated control ([3]; Cinnamic acid 3 μM, Bezafibrate 0 μM, average of three biological replicates): 0.98 fold; average fold increase in insulin-stimulated glucose uptake compared to vehicle treated control ([3]; Cinnamic acid 6 μM, Bezafibrate 0 μM, average of three biological replicates): 1.03 fold; average fold increase in insulin-stimulated glucose uptake compared to vehicle treated control ([3]; Cinnamic acid 12 μM, Bezafibrate 0 μM, average of three biological replicates): 1.10 fold
11 | [Cl][Cu][Cl] [Cupric Chloride] | 1.3661 | 1.25 | 1.0643 | –
12 | O=C(O)Cc1ccccc1Nc1c(Cl)cccc1Cl [Diclofenac Sodium] | 1.3966 | – | – | –
13 | Cc1onc(-c2c(Cl)cccc2Cl)c1C(=O)N[C@@H]1C(=O)N2[C@@H]1SC(C)(C)[C@@H]2C(=O)O [Dicloxacillin Sodium] | 1.0042 | – | – | –
14 | O=C(O)c1cc(-c2ccc(F)cc2F)ccc1O [Diflunisal, 2′,4′-difluoro-4-hydroxy-[1,1′-biphenyl]-3-carboxylic acid] | – | – | – | average fold increase in insulin-stimulated glucose uptake compared to vehicle treated control ([3]; Diflunisal 9 μM, Bezafibrate 0 μM, average of four biological replicates): 1.12 fold; average fold increase in insulin-stimulated glucose uptake compared to vehicle treated control ([3]; Diflunisal 18 μM, Bezafibrate 0 μM, average of four biological replicates): 1.19 fold; average fold increase in insulin-stimulated glucose uptake compared to vehicle treated control ([3]; Diflunisal 36 μM, Bezafibrate 0 μM, average of four biological replicates): 1.52 fold
15 | C[C@H]1O[C@@H](O[C@H]2[C@@H](O)C[C@H](O[C@H]3[C@@H](O)C[C@H](O[C@H]4CC[C@@]5(C)[C@H](CC[C@@H]6[C@@H]5CC[C@]5(C)[C@@H](C7=CC(=O)OC7)CC[C@]65O)C4)O[C@@H]3C)O[C@@H]2C)C[C@H](O)[C@@H]1O [Digitoxin] | 0.8801 | – | – | –
16 | C[C@H](N[C@@H](CCc1ccccc1)C(=O)O)C(=O)N1CCC[C@H]1C(=O)O [Enalaprilat] | 0.992 | 0.8333 | 1.2739 | –
17 | COc1cc([C@@H]2c3cc4c(cc3[C@@H](O[C@@H]3O[C@@H]5CO[C@@H](C)O[C@H]5[C@H](O)[C@H]3O)[C@H]3COC(=O)[C@H]23)OCO4)cc(OC)c1O [Etoposide] | 1.037 | – | – | –
18 | CCC(Cc1c(I)cc(I)c(O)c1I)C(=O)O (stereo not drawn) [Iohenoxic Acid] | 1.0641 | 1.2119 | 1.0504 | –
19 | CCN(CC)C(=S)[S-].CCN(CC)C(=S)[S-].[Pb+2] [LEAD DIETHYLDITHIOCARBAMATE] | 1.524 | 1.2527 | 1.064 | –
20 | CCN(CC)CC#CCOC(=O)C(O)(c1ccccc1)C1CCCCC1 (stereo not drawn) [Oxybutynin Chloride] | 1.0483 | – | – | –
21 | O=C1NC(=O)C(c2ccccc2)(c2ccccc2)N1 [PHENYTOIN] | 1.1755 | – | – | –
22 | CCCCC1C(=O)N(c2ccccc2)N(c2ccccc2)C1=O [Phenylbutazone] | 1.2098 | – | – | –
23 | CCN(CC)CCCC(C)Nc1c2ccc(Cl)cc2nc2ccc(OC)cc12 (stereo not drawn) [QUINACRINE] | 1.0058 | – | – | –
24 | Cc1cc(NS(=O)(=O)c2ccc(N)cc2)nc(C)n1 [Sulfasomidine] | 1.1803 | 1.3077 | 1.0165 | –
25 | CC(C)(C)NCC(O)c1cc(O)cc(O)c1 (stereo not drawn) [Terbutaline Sulfate] | 1.2758 | – | – | –
26 | CCS(=O)(=O)CCn1c([N+](=O)[O-])cnc1C [Tinidazole] | 1.0177 | – | – | –
27 | c1ccc(CC2=NCCN2)cc1 [Tolazoline Hydrochloride] | 0.967 | – | – | –
28 | Inulin | 1.0249 | 1.0089 | 1.3377 | –
29 | Invertase | 1.2175 | 0.8561 | 1.3974 | –
30 | Metaproterenol Hemisulfate Salt | 1.7249 | 1.1261 | 1.4052 | –

Source: patent US7795310B2, “Methods and reagents for the treatment of metabolic disorders” (CombinatoRx, Inc., priority 2004, dated 2010)
